Source: ChEMBL document CHEMBL4325866, “Discovery of a subnanomolar and selective spirocyclic agonist of the glucocorticoid receptor” (Eur J Med Chem, 2019)

Tests used:
Glucocorticoid receptor = biological target: T1, Glucocorticoid receptor (Homo sapiens, UniProt P04150); test: Displacement of [3H]dexamethasone from GR in human IM9 cells after 6 hrs by scintillation counting method; type: cell-based
T1 sequence (P04150 whole entry): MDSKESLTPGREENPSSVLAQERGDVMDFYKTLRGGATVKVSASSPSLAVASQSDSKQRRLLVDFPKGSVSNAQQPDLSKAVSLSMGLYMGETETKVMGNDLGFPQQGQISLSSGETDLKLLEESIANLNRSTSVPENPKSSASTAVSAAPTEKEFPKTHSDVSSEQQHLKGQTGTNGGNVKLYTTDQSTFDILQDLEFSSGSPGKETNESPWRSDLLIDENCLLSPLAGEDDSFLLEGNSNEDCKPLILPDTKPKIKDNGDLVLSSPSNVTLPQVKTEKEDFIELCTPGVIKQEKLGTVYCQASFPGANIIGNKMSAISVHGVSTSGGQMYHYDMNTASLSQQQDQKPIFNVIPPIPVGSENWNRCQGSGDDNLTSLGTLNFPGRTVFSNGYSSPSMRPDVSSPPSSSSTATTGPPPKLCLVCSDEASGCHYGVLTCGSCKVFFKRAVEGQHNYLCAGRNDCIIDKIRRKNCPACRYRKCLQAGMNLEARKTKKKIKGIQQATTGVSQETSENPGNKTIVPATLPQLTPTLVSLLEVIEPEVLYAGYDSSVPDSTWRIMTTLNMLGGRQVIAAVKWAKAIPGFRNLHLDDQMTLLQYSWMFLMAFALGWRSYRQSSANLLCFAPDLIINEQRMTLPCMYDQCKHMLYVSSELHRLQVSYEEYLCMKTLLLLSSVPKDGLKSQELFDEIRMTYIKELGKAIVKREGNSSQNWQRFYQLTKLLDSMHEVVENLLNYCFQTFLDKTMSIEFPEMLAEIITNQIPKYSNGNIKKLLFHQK

Blood = test: Antiinflammatory activity in Sprague-Dawley rat whole blood assessed as inhibition of LPS-induced TNFalpha production measured after 18 hrs by AlphaLisa assay; type: functional, tissue-based
A549 [1] = test: Antiinflammatory activity in human A549 cells assessed as inhibition of IL1beta-induced IL6 production preincubated for 30 mins followed by IL1beta-stimulation and measured after 20 hrs by AlphaLisa assay; type: functional, cell-based
[2] = biological target: T2, Glucocorticoid receptor (Homo sapiens) (UniProt P04150); test: Potency index, ratio of prednisolone IC50 to test compound IC50 for displacement of [3H]dexamethasone from GR in human IM9 cells; type: cell-based
T2 sequence (whole entry): T1 sequence (P04150 whole entry)

Progesterone receptor = biological target: T3, Progesterone receptor (Homo sapiens, UniProt P06401); test: Displacement of [3H]progesterone from progesterone receptor in human T47D cells after 20 hrs by scintillation counting method; type: cell-based
T3 sequence (P06401 whole entry): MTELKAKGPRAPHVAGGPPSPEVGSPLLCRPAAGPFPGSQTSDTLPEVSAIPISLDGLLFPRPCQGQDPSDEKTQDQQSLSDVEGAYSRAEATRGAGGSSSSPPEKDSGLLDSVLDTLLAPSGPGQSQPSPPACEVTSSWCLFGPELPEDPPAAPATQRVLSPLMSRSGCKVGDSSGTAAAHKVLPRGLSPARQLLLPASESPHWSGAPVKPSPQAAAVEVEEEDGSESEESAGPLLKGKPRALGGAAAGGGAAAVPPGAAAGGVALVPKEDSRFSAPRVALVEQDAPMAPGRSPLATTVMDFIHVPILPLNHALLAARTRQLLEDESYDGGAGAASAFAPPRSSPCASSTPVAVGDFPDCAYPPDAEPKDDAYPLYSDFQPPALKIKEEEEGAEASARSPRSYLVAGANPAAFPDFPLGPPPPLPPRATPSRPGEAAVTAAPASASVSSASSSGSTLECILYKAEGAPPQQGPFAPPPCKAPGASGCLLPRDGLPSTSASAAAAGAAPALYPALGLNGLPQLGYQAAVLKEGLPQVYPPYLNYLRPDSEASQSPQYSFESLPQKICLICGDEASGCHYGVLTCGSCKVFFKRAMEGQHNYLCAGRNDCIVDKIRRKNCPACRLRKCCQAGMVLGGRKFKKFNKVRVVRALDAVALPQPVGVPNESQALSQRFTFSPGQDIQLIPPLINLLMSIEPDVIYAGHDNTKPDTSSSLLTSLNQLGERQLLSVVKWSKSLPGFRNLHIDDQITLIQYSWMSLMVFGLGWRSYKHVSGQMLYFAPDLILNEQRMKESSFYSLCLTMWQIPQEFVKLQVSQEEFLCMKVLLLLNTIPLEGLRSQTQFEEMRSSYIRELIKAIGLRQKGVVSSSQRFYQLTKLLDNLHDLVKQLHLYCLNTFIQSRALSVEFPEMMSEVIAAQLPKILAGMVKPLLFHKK

A549 [3] = test: Potency index, ratio of prednisolone IC50 to test compound IC50 for inhibition of IL1beta-induced IL6 production in human A549 cells; type: functional

IC50 (Glucocorticoid receptor) [nM]	SMILES	further results
> 1000	O[C@H]1C(Cc2ccccc2)(Cc2ccccc2)CCC[C@]12C=Cc1c(cnn1-c1ccc(F)cc1)C2	
> 1000	O[C@@]1(c2ccccc2)CCC[C@]12C=Cc1c(cnn1-c1ccc(F)cc1)C2	
135	COc1ccc(C2=CCCC[C@]23C=Cc2c(cnn2-c2ccc(F)cc2)C3)cc1	
	C[C@]12C=CC(=O)C=C1CC[C@@H]1[C@@H]2[C@@H](O)C[C@@]2(C)[C@H]1CC[C@]2(O)C(=O)CO [PREDNISOLONE]	IC50 (Blood): 4.6 nM; IC50 (A549 [1]): 5.8 nM
9.5	O[C@]1(c2ccccc2)CCCCC[C@@]12C=Cc1c(cnn1-c1ccc(F)cc1)C2	
0.41	O[C@@]1(c2ccccc2)CCCC[C@@]12C=Cc1c(cnn1-c1ccc(F)cc1)C2	Ratio IC50 [2]: 30; IC50 (Blood): 4 nM; IC50 (Progesterone receptor): 780 nM; IC50 (A549 [1]): 0.5 nM; Ratio IC50 (A549 [3]): 10
89	O[C@@]1(Cc2ccccc2)CCCCC[C@@]12C=Cc1c(cnn1-c1ccc(F)cc1)C2	
130	O[C@]1(Cc2ccccc2)CCCCC[C@@]12C=Cc1c(cnn1-c1ccc(F)cc1)C2	
> 1000	O[C@H]1[C@@H](Cc2ccccc2)CCC[C@]12C=Cc1c(cnn1-c1ccc(F)cc1)C2	
6	O[C@@]1(c2ccccc2)CCCCC[C@@]12C=Cc1c(cnn1-c1ccc(F)cc1)C2	IC50 (Progesterone receptor): > 1000 nM
1010	O[C@]1(c2ccccc2)CCCC[C@@]12C=Cc1c(cnn1-c1ccc(F)cc1)C2	
20	Fc1ccc(-n2ncc3c2C=C[C@]2(CCCC=C2c2ccccc2)C3)cc1	IC50 (Progesterone receptor): > 1000 nM
10	Oc1ccc(C2=CCCC[C@]23C=Cc2c(cnn2-c2ccc(F)cc2)C3)cc1	
> 1000	C#CC[C@H]1CCC[C@]2(C=Cc3c(cnn3-c3ccc(F)cc3)C2)[C@H]1O	
